The record followed here is US20160326142A1, “PYRAZOLE CARBOXAMIDE COMPOUNDS, COMPOSITIONS AND METHODS OF USE” (Genentech, Inc., priority 2012, published 2016).

In general, Ki refers to a measure of affinity in units of concentration, obtained from inhibition or displacement.

The target in the assay is T1, ITK (Homo sapiens, UniProt Q08881).
T1 construct: purchased Invitrogen PV3875
T1 sequence (Q08881 1-620): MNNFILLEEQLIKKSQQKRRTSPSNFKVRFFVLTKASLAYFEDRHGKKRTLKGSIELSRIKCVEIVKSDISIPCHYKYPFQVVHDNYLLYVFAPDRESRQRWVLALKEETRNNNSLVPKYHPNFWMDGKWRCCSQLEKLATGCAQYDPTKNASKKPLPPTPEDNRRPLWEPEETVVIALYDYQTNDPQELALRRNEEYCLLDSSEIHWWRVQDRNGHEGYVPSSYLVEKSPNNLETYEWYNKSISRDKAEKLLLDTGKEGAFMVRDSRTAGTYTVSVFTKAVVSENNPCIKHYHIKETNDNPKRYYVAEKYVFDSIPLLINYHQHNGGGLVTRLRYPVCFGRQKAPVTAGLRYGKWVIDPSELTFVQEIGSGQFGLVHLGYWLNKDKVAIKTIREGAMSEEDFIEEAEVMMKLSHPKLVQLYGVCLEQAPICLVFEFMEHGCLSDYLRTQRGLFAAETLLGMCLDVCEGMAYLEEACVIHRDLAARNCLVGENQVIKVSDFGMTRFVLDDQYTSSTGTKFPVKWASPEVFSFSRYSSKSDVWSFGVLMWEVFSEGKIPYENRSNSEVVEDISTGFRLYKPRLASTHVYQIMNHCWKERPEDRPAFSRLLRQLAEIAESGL
Kind of assay: ITK enzyme assay (Caliper or LCMS peptide phosphorylation). Format: biochemical. The note with it: purified ITK (Invitrogen PV3875), 20 μM ATP, Ki by Morrison's quadratic equation. The procedure, abridged: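 Purified human ITK peptide phosphorylation, quenched with EDTA (50 mM final) for Caliper LabChip separation or TCA (5% v/v final) for UPLC-MS/MS MRM quantification. Ki derived via Morrison tight-binding equation, corrected for competitive inhibition using ATP concentration relative to Km,app.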
Compound `CC1CC(C(c2ccccc2)n2cc(NC(=O)c3n[nH]c4c3CCC(C)(C)C4)cn2)CCS1(=O)=O` (single isomer, unassigned) [Example 139a, 6,6-dimethyl-N-(1-((2-methyl-1,1-dioxidotetrahydro-2H-thiopyran-4-yl)(phenyl)methyl)-1H-pyrazol-4-yl)-4,5,6,7-tetrahydro-1H-indazole-3-carboxamide] returned a Ki of 1 nM.

The compound `CC1(C)CCc2c(C(=O)Nc3cnn(C(c4cccnc4)C4CCCCS4(=O)=O)c3)n[nH]c2C1` (single isomer, unassigned) [Example 144d, N-(1-((1,1-dioxidotetrahydro-2H-thiopyran-2-yl)(pyridin-3-yl)methyl)-1H-pyrazol-4-yl)-6,6-dimethyl-4,5,6,7-tetrahydro-1H-indazole-3-carboxamide] showed an inhibitory constant (Ki) of 2 nM.

Turning to `CN1CC(C(c2ccccc2)n2cc(NC(=O)c3n[nH]c4c3CCC(C)(C)C4)cn2)C1` (single isomer, unassigned) [Example 38a, 6,6-dimethyl-N-(1-((1-methylazetidin-3-yl)(phenyl)methyl)-1H-pyrazol-4-yl)-4,5,6,7-tetrahydro-1H-indazole-3-carboxamide], the affinity, expressed as Ki, was 4 nM.

`CC1(C)CCc2c(C(=O)Nc3cnn(C(CN4CCCC4=O)c4ccccc4)c3)n[nH]c2C1` (racemic) [Example 76, 6,6-dimethyl-N-(1-(2-(2-oxopyrrolidin-1-yl)-1-phenylethyl)-1H-pyrazol-4-yl)-4,5,6,7-tetrahydro-1H-indazole-3-carboxamide] showed an inhibition constant (Ki) of 4 nM.

Consider `CC1(C)CCc2c(C(=O)Nc3cnn(C(c4ccnc(N)c4)C4CCOCC4)c3)n[nH]c2C1` (single isomer, unassigned) [Example 133a, N-(1-((2-aminopyridin-4-yl)(tetrahydro-2H-pyran-4-yl)methyl)-1H-pyrazol-4-yl)-6,6-dimethyl-4,5,6,7-tetrahydro-1H-indazole-3-carboxamide], for which the inhibition constant Ki is 0.4 nM.

For the compound `N#Cc1cccc(Cn2cc(NC(=O)c3n[nH]c4c3CCC(O)C4)cn2)c1` (single isomer, unassigned) [Example 5b, N-(1-(3-cyanobenzyl)-1H-pyrazol-4-yl)-6-hydroxy-4,5,6,7-tetrahydro-1H-indazole-3-carboxamide], the Ki is 380 nM.

`CN(C)CCC(c1ccccc1)n1cc(NC(=O)c2n[nH]c3c2CCC2(CCCO2)C3)cn1` (stereo not shown) [Example 59, N-(1-(3-(dimethylamino)-1-phenylpropyl)-1H-pyrazol-4-yl)-1′,4,4′,5,5′,7′-hexahydro-3H-spiro[furan-2,6′-indazole]-3′-carboxamide] showed a Ki of 40 nM.

Consider `CC1CC(C(c2ccccc2)n2cc(NC(=O)c3n[nH]c4c3CCC(C)(C)C4)cn2)CCS1(=O)=O` (single isomer, unassigned) [Example 139d, 6,6-dimethyl-N-(1-((2-methyl-1,1-dioxidotetrahydro-2H-thiopyran-4-yl)(phenyl)methyl)-1H-pyrazol-4-yl)-4,5,6,7-tetrahydro-1H-indazole-3-carboxamide], for which the Ki is 12 nM.

`CC1(C)CCc2c(C(=O)Nc3cnn(C(c4ccccc4)C4CN(S(C)(=O)=O)C4)c3)n[nH]c2C1` (single isomer, unassigned) [Example 45a, 6,6-dimethyl-N-(1-((1-(methylsulfonyl)azetidin-3-yl)(phenyl)methyl)-1H-pyrazol-4-yl)-4,5,6,7-tetrahydro-1H-indazole-3-carboxamide] displayed a Ki of 370 nM.

Regarding `CC1(C)Cc2[nH]nc(C(=O)Nc3cnn(Cc4ccccc4)c3)c2CCO1` [Example 71a, N-(1-benzyl-1H-pyrazol-4-yl)-7,7-dimethyl-4,5,7,8-tetrahydro-1H-oxepino[4,5-c]pyrazole-3-carboxamide], the affinity corresponds to a Ki of 4000 nM.

For the compound `CC12Cc3[nH]nc(C(=O)Nc4cnn(Cc5ccccc5)c4)c3C1C2` (single isomer, unassigned) [Example 150a, N-(1-benzyl-1H-pyrazol-4-yl)-4a-methyl-3b,4,4a,5-tetrahydro-1H-cyclopropa[3,4]cyclopent a[1,2-c]pyrazole-3-carboxamide], the Ki was determined as 130 nM.

`Cc1nnc(C(C)n2cc(NC(=O)c3n[nH]c4c3CCC(C)(C)C4)cn2)o1` (single isomer, unassigned) [Example 101b, 6,6-dimethyl-N-(1-(1-(5-methyl-1,3,4-oxadiazol-2-yl)ethyl)-1H-pyrazol-4-yl)-4,5,6,7-tetrahydro-1H-indazole-3-carboxamide] came in with a Ki of 12 nM.

The compound `O=C(Nc1cnn(Cc2ccccc2)c1)c1n[nH]c2c1CCCCC2` [Example 124, N-(1-benzyl-1H-pyrazol-4-yl)-1,4,5,6,7,8-hexahydrocyclohepta[c]pyrazole-3-carboxamide] yielded an inhibitory constant (Ki) of 140 nM.

Compound `CCC1(C)CCc2c(C(=O)Nc3cnn(Cc4ccccc4)c3)n[nH]c2C1` (single isomer, unassigned) [Example 56a, N-(1-benzyl-1H-pyrazol-4-yl)-6-ethyl-6-methyl-4,5,6,7-tetrahydro-1H-indazole-3-carboxamide] had a Ki of 9 nM.

The compound `O=C(Nc1cnn(Cc2ccccc2)c1)c1n[nH]c2c1CC1(CC2)COC1` [Example 13, N-(1-benzyl-1H-pyrazol-4-yl)-1,4,6,7-tetrahydrospiro[indazole-5,3′-oxetane]-3-carboxamide] gave an inhibitory constant (Ki) of 240 nM.

In turn, `CC1(C)CCc2c(C(=O)Nc3cnn(C(CO)c4cccnc4)c3)n[nH]c2C1` (single isomer, unassigned) [Example 81a, N-(1-(2-hydroxy-1-(pyridin-3-yl)ethyl)-1H-pyrazol-4-yl)-6,6-dimethyl-4,5,6,7-tetrahydro-1H-indazole-3-carboxamide] had a Ki of 17 nM.

Compound `CC1(C)CCc2c(C(=O)Nc3cnn(C(c4ccnc(N)c4)C4CCOCC4)c3)n[nH]c2C1` (single isomer, unassigned) [Example 133b, N-(1-((2-aminopyridin-4-yl)(tetrahydro-2H-pyran-4-yl)methyl)-1H-pyrazol-4-yl)-6,6-dimethyl-4,5,6,7-tetrahydro-1H-indazole-3-carboxamide] gave a Ki of 2 nM.

On to `Cc1nnc(C(C)n2cc(NC(=O)c3n[nH]c4c3CCC(C)(C)C4)cn2)o1` (single isomer, unassigned) [Example 101a, 6,6-dimethyl-N-(1-(1-(5-methyl-1,3,4-oxadiazol-2-yl)ethyl)-1H-pyrazol-4-yl)-4,5,6,7-tetrahydro-1H-indazole-3-carboxamide], for which the Ki was 41 nM.

On to `CN(CC(c1ccccc1)n1cc(NC(=O)c2n[nH]c3c2CCC(C)(C)C3)cn1)S(C)(=O)=O` (single isomer, unassigned) [Example 61b, 6,6-dimethyl-N-(1-(2-(N-methylmethylsulfonamido)-1-phenylethyl)-1H-pyrazol-4-yl)-4,5,6,7-tetrahydro-1H-indazole-3-carboxamide], for which the Ki is 1 nM.

`CN1CC(C(c2ccccc2)n2cc(NC(=O)c3n[nH]c4c3CCC(C)(C)C4)cn2)CN(C)C1=O` (single isomer, unassigned) [Example 129b, N-(1-((1,3-dimethyl-2-oxohexahydropyrimidin-5-yl)(phenyl)methyl)-1H-pyrazol-4-yl)-6,6-di methyl-4,5,6,7-tetrahydro-1H-indazole-3-carboxamide] came in with a Ki of 6 nM.

`CC(c1cccnc1)n1cc(NC(=O)c2n[nH]c3c2CCC(C)(C)C3)cn1` (single isomer, unassigned) [Example 106b, 6,6-dimethyl-N-(1-(1-(pyridin-3-yl)ethyl)-1H-pyrazol-4-yl)-4,5,6,7-tetrahydro-1H-indazole-3-carboxamide] returned a Ki of 5 nM.

Compound `CC1(C)CCc2c(C(=O)Nc3cnn(C(c4cccc(C#N)c4)C4CCS(=O)(=O)CC4)c3)n[nH]c2C1` (single isomer, unassigned) [Example 110a, N-(1-((3-cyanophenyl)(1,1-dioxidotetrahydro-2H-thiopyran-4-yl)methyl)-1H-pyrazol-4-yl)-6,6-dimethyl-4,5,6,7-tetrahydro-1H-indazole-3-carboxamide] yielded an inhibition constant Ki of 0.2 nM.

In turn, `CC12Cc3[nH]nc(C(=O)Nc4cnn(C(c5cccnc5)C5CC[S+]([O-])CC5)c4)c3CC1C2` (single isomer, unassigned) [Example 146b, 5a-methyl-N-(1-((1-oxidotetrahydro-2H-thiopyran-4-yl)(pyridin-3-yl)methyl)-1H-pyrazol-4-yl)-1,4,4a,5,5a,6-hexahydrocyclopropa[f]indazole-3-carboxamide] had a Ki of 2 nM.

Compound `CC1(C)CCc2c(C(=O)Nc3cnn(C(c4cccc(S(C)(=O)=O)c4)C4CCOC4)c3)n[nH]c2C1` (single isomer, unassigned) [Example 126a, 6,6-dimethyl-N-(1-((3-(methylsulfonyl)phenyl)(tetrahydrofuran-3-yl)methyl)-1H-pyrazol-4-yl)-4,5,6,7-tetrahydro-1H-indazole-3-carboxamide] yielded a Ki of 2 nM.

`CN(C)CC(c1ccccc1)n1cc(NC(=O)c2n[nH]c3c2CC(C)(C)C3)cn1` (single isomer, unassigned) [Example 96b, N-(1-(2-(dimethylamino)-1-phenylethyl)-1H-pyrazol-4-yl)-5,5-dimethyl-1,4,5,6-tetrahydrocyclopenta[c]pyrazole-3-carboxamide] displayed a Ki of 2 nM.
